System: lice
Conditions: active agent delivered as gas/vapour in an airtight cap around the head; comparison among carboxylic acids

| Compound | effectiveness of carboxylic acids for use in treating lice and nits |
| --- | --- |
| CC(=O)O [acetic acid, Acetic acid] | most effective |
| O=CO [formic acid, Formic acid] | most effective |
